Assay results taken from US10894775B2, “Piperidine derivatives as liver X receptor beta agonists, compositions, and their use” (Merck Sharp & Dohme Corp., priority 2016, dated 2021).
Like-named read-outs stand apart in the source and are kept apart here.

Assays:
[1] = target: T1, glutathione-S-transferase (GST) tagged LXRbeta LBD (ligand binding domain) (Homo sapiens, UniProt P55055); test: LanthaScreen TR-FRET Liver X Receptor Coactivator Assay, LXR beta; type: biochemical; conditions: for Emax: read-out: LXR beta actiivty at max dose (%); for EC50: potency (Inflection Point) of compound-induced co-activator recruitment, TR-FRET
T1 construct: purchased Invitrogen pv4658.pps
T1 sequence (P55055 222-460 limits assumed): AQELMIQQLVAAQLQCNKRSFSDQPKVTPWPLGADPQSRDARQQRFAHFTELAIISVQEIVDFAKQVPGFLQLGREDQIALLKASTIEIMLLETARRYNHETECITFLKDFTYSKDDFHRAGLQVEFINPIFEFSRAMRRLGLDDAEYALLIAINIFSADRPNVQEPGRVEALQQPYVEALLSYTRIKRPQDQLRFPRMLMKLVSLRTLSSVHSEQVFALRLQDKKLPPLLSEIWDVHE
Procedure: (§1) While running the LanthaScreen™ TR-FRET Liver X Receptor Coactivator Assay, LXR alpha-LBD or LXR beta-LBD was added to ligand test compounds followed by addition of a mixture of a fluorescein-labelled coactivator peptide and terbium-conjugated anti-GST antibody. After an incubation period at room temperature, TR-FRET (time-resolved fluorescence resonance energy transfer) was measured using a filter-based instrument capable of TR-FRET, e.g. PerkinElmer Envision.

[2] = target: T2, glutathione-S-transferase (GST) tagged LXRalpha LBD (ligand binding domain) (Homo sapiens, UniProt Q13133); test: LanthaScreen TR-FRET Liver X Receptor Coactivator Assay, LXR alpha; type: biochemical; conditions: for EC50 / LXR alpha IP (nM): potency (Inflection Point) of compound-induced co-activator recruitment, TR-FRET; for Emax: read-out: LXR alpha actiivty at max dose (%)
T2 construct: purchased Invitrogen pv4655
T2 sequence (Q13133 209-447 limits assumed): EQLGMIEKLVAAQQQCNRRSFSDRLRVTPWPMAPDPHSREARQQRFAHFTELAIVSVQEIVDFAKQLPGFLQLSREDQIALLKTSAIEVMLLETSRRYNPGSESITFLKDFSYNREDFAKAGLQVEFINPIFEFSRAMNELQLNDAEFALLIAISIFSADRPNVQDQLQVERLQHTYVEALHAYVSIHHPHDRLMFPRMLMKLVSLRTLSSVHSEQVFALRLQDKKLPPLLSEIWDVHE
Procedure: as §1

[3] = efficacy (Emax) in relation to reference dual agonist T0901317

| Structure (SMILES) | Emax [1, 3] | EC50 ([1]; read-out: LXR beta IP) | Emax [2, 3] | EC50 ([2]; read-out: LXR alpha IP) | LXR alpha IP (nM) [2] | LXR alpha actiivty at max dose (%) [2, 3] | LXR beta actiivty at max dose (%) [1, 3] | EC50 ([2]; LXR alpha IP (nM)) | Emax [2] | EC50 ([1]; LXR beta IP (nM)) | Emax [1] |
| --- | --- | --- | --- | --- | --- | --- | --- | --- | --- | --- | --- |
| CNC(=O)c1ccc(NCCCCC2CCN(C(=O)C(O)(c3cccc(OC)c3)C(F)(F)F)CC2)cc1Cl (single isomer, unassigned) [Example 1-1, (R or S)-2-chloro-N-methyl-4-(4-(1-(3,3,3-trifluoro-2-hydroxy-2-(3-methoxyphenyl)propanoyl)piperidin-4-yl)butylamino)benzamide] | 68% | 8 nM | – | – | – | – | – | 577 nM | 17% | – | – |
| NC(=O)c1ccc(NCCCCC2CCN(C(=O)C(O)(c3ccccc3)C(F)(F)F)CC2)cc1Cl (single isomer, unassigned) [Example 1-2, (R or S)-2-chloro-4-(4-(1-(3,3,3-trifluoro-2-hydroxy-2-phenylpropanoyl)piperidin-4-yl)butylamino)benzamide] | 59% | 15 nM | 43% | 266 nM | – | – | – | – | – | – | – |
| CNC(=O)c1ccc(NCCCCC2CCN(C(=O)C(O)(c3ccccc3)C(F)(F)F)CC2)cc1Cl (single isomer, unassigned) [Example 1-3, (R or S)-2-chloro-N-methyl-4-(4-(1-(3,3,3-trifluoro-2-hydroxy-2-phenylpropanoyl)piperidin-4-yl)butylamino)benzamide] | 75% | 9 nM | 38% | 481 nM | – | – | – | – | – | – | – |
| CNC(=O)c1ccc(NCCCCC2CCN(C(=O)C(O)(c3cccc(Cl)c3)C(F)(F)F)CC2)cc1Cl (single isomer, unassigned) [Example 1-5, (R or S)-2-chloro-4-(4-(1-(2-(3-chlorophenyl)-3,3,3-trifluoro-2-hydroxypropanoyl)piperidin-4-yl)butylamino)-N-methylbenzamide] | 72% | 8 nM | 32% | 239 nM | – | – | – | – | – | – | – |
| CNC(=O)c1ccc(NCCCCC2CCN(C(=O)C(O)(c3cccc(OC)c3)C(F)(F)F)CC2)cc1F (single isomer, unassigned) [Example 1-6, (R or S)-2-fluoro-N-methyl-4-(4-(1-(3,3,3-trifluoro-2-hydroxy-2-(3-methoxyphenyl)propanoyl)piperidin-4-yl)butylamino)benzamide] | 63% | 102 nM | 16% | 3300 nM | – | – | – | – | – | – | – |
| CNC(=O)c1ccc(NCCCCC2CCN(C(=O)C(O)(c3cccc(OC4CC4)c3)C(F)(F)F)CC2)cc1Cl (single isomer, unassigned) [Example 1-7, (S or R)-2-chloro-4-(4-(1-(2-(3-cyclopropoxyphenyl)-3,3,3-trifluoro-2-hydroxypropanoyl)piperidin-4-yl)butylamino)-N-methylbenzamide] | 56% | 14 nM | 19% | 3160 nM | – | – | – | – | – | – | – |
| CCc1cccc(C(O)(C(=O)N2CCC(CCCCNc3ccc(C(=O)NC)c(Cl)c3)CC2)C(F)(F)F)c1 (single isomer, unassigned) [Example 1-8, (S or R)-2-chloro-4-(4-(1-(2-(3-ethylphenyl)-3,3,3-trifluoro-2-hydroxypropanoyl)piperidin-4-yl)butylamino)-N-methylbenzamide] | 52% | 4 nM | 12% | – | No IP | – | – | – | – | – | – |
| CNC(=O)c1ccc(NCCCCC2CCN(C(=O)C(O)(c3cccc(OC(F)(F)F)c3)C(F)(F)F)CC2)cc1Cl (single isomer, unassigned) [Example 1-9, (S or R)-2-chloro-N-methyl-4-(4-(1-(3,3,3-trifluoro-2-hydroxy-2-(3-(trifluoromethoxy)phenyl)propanoyl)piperidin-4-yl)butylamino)benzamide] | 62% | 17 nM | 13% | – | No IP | – | – | – | – | – | – |
| CNC(=O)c1ccc(NCCCCC2CCN(C(=O)C(O)(c3cccc(OC(C)C)c3)C(F)(F)F)CC2)cc1Cl (single isomer, unassigned) [Example 1-10, (S or R)-2-chloro-N-methyl-4-(4-(1-(3,3,3-trifluoro-2-hydroxy-2-(3-isopropoxyphenyl)propanoyl)piperidin-4-yl)butylamino)benzamide] | 68% | 14 nM | 19% | 2090 nM | – | – | – | – | – | – | – |
| CNC(=O)c1ccc(NCCCCC2CCN(C(=O)C(O)(c3cc(Cl)cc(Cl)c3)C(F)(F)F)CC2)cc1Cl (single isomer, unassigned) [Example 1-11, (R or S)-2-chloro-4-(4-(1-(2-(3,5-dichlorophenyl)-3,3,3-trifluoro-2-hydroxypropanoyl)piperidin-4-yl)butylamino)-N-methylbenzamide] | 29% | 3 nM | 0% | – | No IP | – | – | – | – | – | – |
| CN(C)C(=O)c1ccc(NCCCCC2CCN(C(=O)C(O)(c3ccccc3)C(F)(F)F)CC2)cc1Cl (single isomer, unassigned) [Example 1-15, (S or R)-2-chloro-N,N-dimethyl-4-(4-(1-(3,3,3-trifluoro-2-hydroxy-2-phenylpropanoyl)piperidin-4-yl)butylamino)benzamide] | 72% | 3 nM | 43% | 147 nM | – | – | – | – | – | – | – |
| CN(C)C(=O)c1ccc(N(C)CCCC2CCN(C(=O)C(O)(c3ccccc3)C(F)(F)F)CC2)cc1Cl (single isomer, unassigned) [Example 3-1, (S or R)-2-chloro-N,N-dimethyl-4-(methyl(3-(1-(3,3,3-trifluoro-2-hydroxy-2-phenylpropanoyl)piperidin-4-yl)propyl)amino)benzamide] | – | – | 16% | 1150 nM | – | – | – | – | – | 47 nM | 109% |
| CC(CC1CC12CCN(C(=O)C1(c3ccccc3)CCC1)CC2)Nc1ccc(C(=O)N(C)C)c(Cl)c1 (single isomer, unassigned) [Example 5-1, 2-chloro-N,N-dimethyl-4-(1-((S or R)-6-(1-phenylcyclobutanecarbonyl)-6-azaspiro[2.5]octan-1-yl)propan-2-ylamino)benzamide] | – | – | 56% | 220 nM | – | – | – | – | – | 5 nM | 41% |

More lines, main results first:

| Emax [1, 3] | EC50 ([1]; read-out: LXR beta IP) | Emax [2, 3] | EC50 ([2]; read-out: LXR alpha IP) | LXR alpha IP (nM) [2] | LXR alpha actiivty at max dose (%) [2, 3] | LXR beta actiivty at max dose (%) [1, 3] | Structure (SMILES) | EC50 ([2]; LXR alpha IP (nM)) | Emax [2] | EC50 ([1]; LXR beta IP (nM)) | Emax [1] |
| --- | --- | --- | --- | --- | --- | --- | --- | --- | --- | --- | --- |
| 71% | 13 nM | 22% | 734 nM | – | – | – | COc1cccc([C@@](O)(C(=O)N2CCC(CCC[C@H](C)Nc3ccc(C(=O)N(C)C)c(Cl)c3)CC2)C(F)(F)F)c1 (single isomer, unassigned) [Example 4-1, 2-chloro-N,N-dimethyl-4-((S or R)-5-(1-((R or S)-3,3,3-trifluoro-2-hydroxy-2-(3-methoxyphenyl)propanoyl)piperidin-4-yl)pentan-2-ylamino)benzamide] | – | – | – | – |
| 84% | 7 nM | 37% | 382 nM | – | – | – | CC(CCCC1CCN(C(=O)[C@](O)(c2cccc(Cl)c2)C(F)(F)F)CC1)Nc1ccc(C(=O)N(C)C)c(Cl)c1 (single isomer, unassigned) [Example 4-2, 2-chloro-4-((S or R)-5-(1-((R or S)-2-(3-chlorophenyl)-3,3,3-trifluoro-2-hydroxypropanoyl)piperidin-4-yl)pentan-2-ylamino)-N,N-dimethylbenzamide] | – | – | – | – |
| 79% | 15 nM | – | 653 nM | – | 35% | – | CC(CCCC1CCN(C(=O)[C@](O)(c2ccccc2)C(F)(F)F)CC1)Nc1ccc(C(=O)N(C)C)c(Cl)c1 (single isomer, unassigned) [Example 4-3, 2-chloro-N,N-dimethyl-4-((S or R)-5-(1-((R or S)-3,3,3-trifluoro-2-hydroxy-2-phenylpropanoyl)piperidin-4-yl)pentan-2-ylamino)benzamide] | – | – | – | – |
| – | 325 nM | – | – | No IP | 7% | 59% | CC(CCCC1CCN(C(=O)[C@](O)(c2ccccc2)C(F)(F)F)CC1)Nc1ccc(C(=O)N(C)C)c(Cl)c1 (single isomer, unassigned) [Example 4-4, 2-chloro-N,N-dimethyl-4-((R or S)-5-(1-((R or S)-3,3,3-trifluoro-2-hydroxy-2-phenylpropanoyl)piperidin-4-yl)pentan-2-ylamino)benzamide] | – | – | – | – |
| 17% | 3770 nM | 0% | – | No IP | – | – | COc1cccc([C@@](O)(C(=O)N2CCC(CCCC(C)Nc3ccc(C(=O)N(C)C)c(Cl)c3)CC2)C(F)(F)F)c1 (single isomer, unassigned) [Example 4-5, 2-chloro-N,N-dimethyl-4-((R or S)-5-(1-((R or S)-3,3,3-trifluoro-2-hydroxy-2-(3-methoxyphenyl)propanoyl)piperidin-4-yl)pentan-2-ylamino)benzamide] | – | – | – | – |
